Legend:
[1] = system: SNK-6 (IL-2 2.5 ng/mL); assay: percent inhibition of viability; higher = more inhibition; conditions: 72 h
[2] = system: normal primary NK cells, pool 3 (3 donors) (IL-2 2.5 ng/mL); assay: as above; conditions: 72 h
[3] = system: NK-YS (IL-2 2.5 ng/mL); assay: as above; conditions: 72 h
[4] = system: NK-92 (IL-2 2.5 ng/mL); assay: as above; conditions: 72 h
[5] = system: normal primary NK cells, pool 2 (3 donors) (IL-2 2.5 ng/mL); assay: as above; conditions: 72 h
[6] = system: KAI3 (IL-2 2.5 ng/mL); assay: as above; conditions: 72 h
[7] = system: IMC-1 (IL-2 20 ng/mL); assay: as above; conditions: 72 h
[8] = system: normal primary NK cells, pool 1 (3 donors) (IL-2 2.5 ng/mL); assay: as above; conditions: 72 h
[9] = system: NKL (IL-2 2.5 ng/mL); assay: as above; conditions: 72 h
[10] = system: KHYG-1 (IL-2 2.5 ng/mL); assay: as above; conditions: 72 h
[11] = system: normal primary NK cells, pool 1 (3 donors), resting (IL-2 0 ng/mL); assay: as above; conditions: 72 h
[12] = system: YT (IL-2 2.5 ng/mL); assay: as above; conditions: 72 h
[13] = system: DERL-7 (IL-2 2.5 ng/mL); assay: as above; conditions: 72 h
[14] = system: SNK-6 (IL-2 2.5 ng/mL); assay: drug sensitivity score (DSS) (DSS units); higher = more sensitive; extreme values may be limits of the assay; conditions: 72 h
[15] = system: normal primary NK cells, pool 3 (3 donors) (IL-2 2.5 ng/mL); assay: as above; conditions: 72 h
[16] = system: NK-YS (IL-2 2.5 ng/mL); assay: as above; conditions: 72 h
[17] = system: NK-92 (IL-2 2.5 ng/mL); assay: as above; conditions: 72 h
[18] = system: normal primary NK cells, pool 2 (3 donors) (IL-2 2.5 ng/mL); assay: as above; conditions: 72 h
[19] = system: KAI3 (IL-2 2.5 ng/mL); assay: as above; conditions: 72 h
[20] = system: IMC-1 (IL-2 20 ng/mL); assay: as above; conditions: 72 h
[21] = system: normal primary NK cells, pool 1 (3 donors) (IL-2 2.5 ng/mL); assay: as above; conditions: 72 h
[22] = system: NKL (IL-2 2.5 ng/mL); assay: as above; conditions: 72 h
[23] = system: KHYG-1 (IL-2 2.5 ng/mL); assay: as above; conditions: 72 h
[24] = system: normal primary NK cells, pool 1 (3 donors), resting (IL-2 0 ng/mL); assay: as above; conditions: 72 h
[25] = system: YT (IL-2 2.5 ng/mL); assay: as above; conditions: 72 h
[26] = system: DERL-7 (IL-2 2.5 ng/mL); assay: as above; conditions: 72 h
[27] = system: normal NK cells expanded with K562-aAPC; assay: percent inhibition of viability; higher = more inhibition; conditions: 72 h, IL-2 2.5 ng/mL
Method: (§1)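 Drug sensitivity and resistance testing on K562-aAPC-expanded normal NK cells: 5 concentrations (10-fold steps over a 10,000-fold range), 72 h at 37 °C, viability by CellTiter-Glo normalised to DMSO and benzethonium chloride controls; DSS from the fitted curve.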

[28] = system: normal NK cells expanded with K562-aAPC; assay: drug sensitivity score (DSS) (DSS units); higher = more sensitive; extreme values may be limits of the assay; conditions: 72 h; IL-2 2.5 ng/mL
Method: as §1

C[C@@H](C(=O)O)c1ccc(-c2ccccc2)c(F)c1 [Tarenflurbil] (max concentration tested 10000 nM)
percent inhibition of viability [%]
Conditions	1 nM	10 nM	100 nM	1000 nM	10000 nM
[1]	-1.12	-28.7	-23.7	-16.9	14.1
[2]	-14.1	-0.87	-2.01	-2.07	2.43
[3]	-4.2	-2.88	4.93	1.37	11.5
[4]	-0.98	-4.75	-2.63	14.7	23.1
[5]	-7.01	3.47	9.98	6.83	1.08
[6]	-7.87	-7.47	3.52	11.2	23.6
[7]	-1.05	0.62	-1.4	-6.55	2.74
[8]	2	12.8	9.24	3.23	7.48
[9]	-0.03	-4.97	19.8	21.7	16.2
[10]	-3.32	-5.74	0.55	-0.63	6.21
[11]	-0.07	18.2	4.52	11.8	8.75
[12]	-2.12	-10.1	2.14	4.49	14.9
[13]	4.46	2.02	-0.14	2.03	-3.24
[27]	-6.17	-4.88	-3.95	0.95	3.26

Conditions	drug sensitivity score
[14]	0.04
[15]	0
[16]	0.07
[17]	2.36
[18]	0
[19]	1.72
[20]	0
[21]	0
[22]	5.13
[23]	0
[24]	0.07
[25]	0.47
[26]	0
[28]	0

NC(=O)c1cccc(-c2cccc(OC(=O)NC3CCCCC3)c2)c1 [URB597] (max concentration tested 1000 nM)
percent inhibition of viability [%]
Conditions	0.1 nM	1 nM	10 nM	100 nM	1000 nM
[1]	-7.3	9.09	10.3	2.22	2.83
[2]	-10.1	-1.33	5.88	-9.83	6.07
[3]	-1.3	0.73	8.14	5.17	8.51
[4]	1.97	3.05	12.2	-3.48	7.28
[5]	-11.5	-5.88	15.1	-7.18	8.87
[6]	-3.62	-6.19	-2.65	-2.84	16.1
[7]	-4	4.78	2.31	4	3.07
[8]	5.21	-3.54	1.12	-15.5	-7.59
[9]	3.64	0.02	13.3	15.1	14.2
[10]	-1.98	3.31	2.01	2.83	7.66
[11]	-1.65	-9.18	1.01	-15.8	-6.01
[12]	1.76	2.28	2.53	3.49	9.4
[13]	11	4.35	12	5.02	5.08
[27]	-5.77	-3.62	-1	7.42	7.56

Conditions	drug sensitivity score
[14]	0
[15]	0
[16]	0
[17]	0
[18]	0
[19]	0.21
[20]	0
[21]	0
[22]	2.41
[23]	0
[24]	0
[25]	0
[26]	0
[28]	0

CC/C(=C(\c1ccc(O)cc1)c1ccc(OCCN(C)C)cc1)c1ccccc1 [4-hydroxytamoxifen] (max concentration tested 10000 nM)
percent inhibition of viability [%]
Conditions	1 nM	10 nM	100 nM	1000 nM	10000 nM
[1]	-1.81	-16.4	0.89	-17.1	93.9
[2]	-0.81	-2.52	-1.24	3.05	49.3
[3]	-2.09	3.5	7.72	7.44	66.8
[4]	3.77	-3.77	6.43	2.65	103
[5]	-4	-6.91	4.61	4.67	80.2
[6]	7.22	10.1	14.3	5.63	102
[7]	-4.59	-0.5	3.38	9.15	71.8
[8]	-13	0.38	-1.85	-2.34	75.4
[9]	8.86	-6.55	2.97	4.58	77.8
[10]	-2.07	1.6	5.77	21.8	55.9
[11]	-6.81	0.21	-12.3	-11.9	88.8
[12]	3.34	-0.32	-0.38	9.38	93.1
[13]	7.02	-0.93	4.62	16.8	79.2
[27]	-7.32	-3.75	-0.57	7.65	64

Conditions	drug sensitivity score
[14]	4.28
[15]	3.03
[16]	4.91
[17]	6.14
[18]	5.13
[19]	6.52
[20]	5.5
[21]	3.97
[22]	4.98
[23]	5.42
[24]	4.19
[25]	6.69
[26]	7.09
[28]	4.78

C[C@]12O[C@H](C[C@]1(O)CO)n1c3ccccc3c3c4c(c5c6ccccc6n2c5c31)CNC4=O [Lestaurtinib] (max concentration tested 1000 nM)
percent inhibition of viability [%]
Conditions	0.1 nM	1 nM	10 nM	100 nM	1000 nM
[1]	0.62	7.99	4.23	64.6	73.7
[2]	-8.42	-14	-3.13	65.2	72.3
[3]	-0.02	0.67	6.21	48.1	87.8
[4]	-0.14	-6.28	7.06	76.2	82.7
[5]	-7.68	3.05	13.7	69.3	73
[6]	-0.38	3.13	35.9	86.4	76.4
[7]	-6.9	-5.94	-22.2	51.8	98.9
[8]	-8.02	-1.5	10.2	76	75.2
[9]	-13.1	-12.9	13.3	71.2	80.6
[10]	-2.95	1.85	23.3	99.3	98.2
[11]	4.88	-1.99	-2.95	26	18.6
[12]	-2.5	-0.06	3.18	55.1	91.6
[13]	6.54	3.47	17.9	85.4	99.6
[27]	0.88	0.03	29	96.5	95.9

Conditions	drug sensitivity score
[14]	12.5
[15]	11.9
[16]	10.6
[17]	15
[18]	14.7
[19]	20.1
[20]	11.8
[21]	15.6
[22]	14.8
[23]	21.5
[24]	3.91
[25]	11.7
[26]	17.9
[28]	21.6

Cc1csc(-c2nnc(Nc3ccc(Oc4ncccc4-c4ccnc(N)n4)cc3)c3ccccc23)c1 [AMG-900] (max concentration tested 1000 nM)
percent inhibition of viability [%]
Conditions	0.1 nM	1 nM	10 nM	100 nM	1000 nM
[1]	15.5	7.4	68.4	57.2	72.8
[2]	-7.42	4.77	-7.75	-0.31	-0.94
[3]	-5.77	-3.39	59.6	59.6	71.8
[4]	-9.63	-11.2	17.6	27.6	52.6
[5]	-8.07	-6.23	-6.7	-3.83	-5.92
[6]	-5.87	-5.96	19.4	20.4	43.4
[7]	-5.67	-6.98	18.2	21.9	63.9
[8]	-4.05	-2.86	-4.93	-3.83	-3.7
[9]	-16.8	-17.8	-16.6	-9.7	-5.52
[10]	-2.26	-0.47	44.5	33.3	59.8
[11]	-1.37	-7.12	5.07	10.8	11.6
[12]	-0.32	-0.28	13	16	24.9
[13]	-3.26	-1.85	31	70.8	53.9
[27]	-2.04	-5.9	-2.98	39.7	33

Conditions	drug sensitivity score
[14]	23
[15]	0
[16]	20.2
[17]	6.74
[18]	0
[19]	5.44
[20]	6.18
[21]	0
[22]	0
[23]	12.6
[24]	0.61
[25]	3.19
[26]	17.1
[28]	6.8
